{
  "source": "patent US6383774B1",
  "about": "“Parasitic nematode transglutaminase, nucleic acid molecules and uses thereof” (Heska Corporation, priority 1996, dated 2002)",
  "key": {"[1]": {"test_system": "D. immitis transglutaminase", "assay": "Effect of ions, inhibitors and other reagents on activity of transglutaminase purified from adult D. immitis worms (microtiter plate assay)", "format": "biochemical"}, "[2]": {"test_system": "PHIS-PDiTG468", "format": "biochemical, D. immitis"}, "[3]": {"test_system": "PHIS-PDiTG468", "format": "biochemical, D. immitis", "remark": "listed apart in the source"}, "[4]": {"target": "T1, PDI from bovine liver (Bos taurus, UniProt P05307)", "T1 sequence (P05307 21-510)": "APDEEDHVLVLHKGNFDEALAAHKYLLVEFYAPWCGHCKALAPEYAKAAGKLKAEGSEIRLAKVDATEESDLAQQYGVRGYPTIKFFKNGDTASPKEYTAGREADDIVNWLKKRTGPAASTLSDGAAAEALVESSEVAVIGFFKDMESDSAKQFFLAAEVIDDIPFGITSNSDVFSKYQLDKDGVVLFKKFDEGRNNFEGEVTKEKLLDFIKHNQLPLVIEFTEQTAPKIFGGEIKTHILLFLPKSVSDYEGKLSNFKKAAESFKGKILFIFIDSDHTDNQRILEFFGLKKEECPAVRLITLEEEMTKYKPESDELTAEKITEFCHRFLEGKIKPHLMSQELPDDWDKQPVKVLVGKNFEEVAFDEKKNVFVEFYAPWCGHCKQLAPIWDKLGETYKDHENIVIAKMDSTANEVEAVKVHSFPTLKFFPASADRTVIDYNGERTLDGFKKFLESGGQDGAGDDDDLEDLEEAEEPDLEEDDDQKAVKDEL", "assay": "Effect of transglutaminase inhibitors on PDI activity of purified bovine liver PDI (scrambled RNase reactivation)", "format": "biochemical", "conditions": "inhibitor 1 mM"}, "[5]": {"test_system": "D. immitis L3 larvae", "assay": "D. immitis L3 larval molting in in vitro larval culture", "format": "cell-based"}, "[6]": {"target": "bovine protein disulfide isomerase (PDI) (Bos taurus, UniProt P05307)"}, "[7]": {"test_system": "dimethylcasein", "format": "biochemical"}, "[8]": {"conditions": "reagent 10 mM, with 10 mM CaCl2 and 10 mM dithiothreitol"}, "[9]": {"conditions": "reagent 1 mM, with 10 mM CaCl2 and 10 mM dithiothreitol"}, "[10]": {"conditions": "50 μM, inhibitor present during first 24 hr of L3 culture"}, "[11]": {"conditions": "100 μM, inhibitor present during first 24 hr of L3 culture"}},
  "note": "Where “and” joins values, the source holds several entries; their conditions need not be identical. Equal entries are not always repeated. Entries after “also recorded” stand apart in the source; their conditions may differ. Where two headings read alike, the source gives them in different places.",
  "data": [
    {"molecule": "O[C@H](CS)[C@H](O)CS", "note": "(racemic) [Dithiothreitol]", "values": [
      {"measurement": "Effect on activity of transglutaminase purified from adult D. immitis worms (in words)", "setting": "[1]", "value": "increased the enzyme activity substantially"},
      {"measurement": "Effect on transglutaminase activity of PHIS-PDiTG468 (in words)", "setting": "[2]", "value": "more active in the absence of DTT"}
    ]},
    {"molecule": "N.N.O=S(=O)(O)O", "note": "[(NH4)2SO4]", "values": [
      {"measurement": "Transglutaminase activity (% of control)", "setting": "[1]; [8]", "value": "0 % of control"}
    ]},
    {"molecule": "NCCSSCCN", "note": "[Cystamine]", "values": [
      {"measurement": "Effect on activity of transglutaminase purified from adult D. immitis worms (in words)", "setting": "[1]", "value": "inhibited competitively"},
      {"measurement": "Transglutaminase activity (% of control)", "setting": "[1]; [9]", "value": "52 % of control"},
      {"measurement": "PDI Activity (Mean ± SD) of PHIS-PDiTG468", "setting": "[3]", "value": "33.3 ± 1.8 ΔA min^−1"},
      {"measurement": "PDI Activity (Mean ± SD) of PDI", "setting": "[4]", "value": "26.4 ± 2.9 ΔA min^−1"},
      {"measurement": "Activity (mU ± SEM)", "setting": "[2]", "value": "46.4 ± 4.6 mU and 28.3 ± 2.2 mU"},
      {"measurement": "Effect on transglutaminase activity of PHIS-PDiTG468 (in words)", "setting": "[2]", "value": "inhibited the transglutaminase activity"},
      {"measurement": "Percent molted", "setting": "[5]; 25 μM, L3 cultured 6 days", "value": 61, "unit": "%"},
      {"measurement": "Percent molted", "setting": "[5]; 50 μM, L3 cultured 6 days", "value": 62, "unit": "%"},
      {"measurement": "Percent molted", "setting": "[5]; [10]", "value": 68, "unit": "%"},
      {"measurement": "Percent molted", "setting": "[5]; 75 μM, L3 cultured 6 days", "value": 17, "unit": "%"},
      {"measurement": "Percent molted", "setting": "[5]; 85 μM, L3 cultured 6 days", "value": 1, "unit": "%"},
      {"measurement": "Inhibition of molting of L3 to L4 (in words)", "setting": "[5]; 100 μM final concentration", "value": "completely inhibited the molting process"},
      {"measurement": "Percent molted", "setting": "[5]; 100 μM, L3 cultured 6 days", "value": 0, "unit": "%"},
      {"measurement": "Percent molted", "setting": "[5]; [11]", "value": 13, "unit": "%"},
      {"measurement": "Inhibition of larval molting (in words)", "setting": "[5]; added on day 2 during the culture", "value": "very effective inhibitor of larval molting"}
    ]},
    {"molecule": "O=C(O)CN(CCN(CC(=O)O)CC(=O)O)CC(=O)O", "note": "[EDTA]", "values": [
      {"measurement": "Effect on transglutaminase activity of bovine PDI (in words)", "setting": "[6]", "value": "inhibited"},
      {"measurement": "Effect on transglutaminase activity of PHIS-PDiTG468 (in words)", "setting": "[2]", "value": "inhibited"}
    ]},
    {"molecule": "O=C(O)CN(CCOCCOCCN(CC(=O)O)CC(=O)O)CC(=O)O", "note": "[EGTA]", "values": [
      {"measurement": "Effect on activity of transglutaminase purified from adult D. immitis worms (in words)", "setting": "[1]", "value": "completely blocked the activity"},
      {"measurement": "Transglutaminase activity (% of control)", "setting": "[1]; [8]", "value": "0 % of control"},
      {"measurement": "Effect on transglutaminase activity of PHIS-PDiTG468 (in words)", "setting": "[2]", "value": "inhibited"}
    ]},
    {"molecule": "Nc1nc2c(ncn2[C@@H]2O[C@H](COP(=O)(O)OP(=O)(O)OP(=O)(O)O)[C@@H](O)[C@H]2O)c(=O)[nH]1", "note": "[GTP]", "values": [
      {"measurement": "Effect on activity of transglutaminase purified from adult D. immitis worms (in words)", "setting": "[1]", "value": "not affected adversely"},
      {"measurement": "Transglutaminase activity (% of control)", "setting": "[1]; reagent 0.1 mM, with 10 mM CaCl2 and 10 mM dithiothreitol", "value": "100 % of control"},
      {"measurement": "Transglutaminase activity (% of control)", "setting": "[1]; [9]", "value": "95 % of control"}
    ]},
    {"molecule": "NC(=O)CI", "note": "[Iodoacetamide]", "values": [
      {"measurement": "Effect on activity of transglutaminase purified from adult D. immitis worms (in words)", "setting": "[1]", "value": "decreased the activity drastically"},
      {"measurement": "Effect on transglutaminase activity of PHIS-PDiTG468 (in words)", "setting": "[2]", "value": "inhibited the transglutaminase activity"},
      {"measurement": "Inhibition of molting of L3 to L4 (in words)", "setting": "[5]", "value": "able to inhibit"}
    ]},
    {"molecule": "[Cl-].[K+]", "note": "[KCl]", "values": [
      {"measurement": "Transglutaminase activity (% of control)", "setting": "[1]; reagent 500 mM, with 10 mM CaCl2 and 10 mM dithiothreitol", "value": "54 % of control"}
    ]},
    {"molecule": "CN(C)c1cccc2c(S(=O)(=O)NCCCCCN)cccc12", "note": "[Monodansyl cadaverine]", "values": [
      {"measurement": "Effect on activity of transglutaminase purified from adult D. immitis worms (in words)", "setting": "[1]", "value": "inhibited competitively"},
      {"measurement": "Transglutaminase activity (% of control)", "setting": "[1]; [9]", "value": "9 % of control"},
      {"measurement": "PDI Activity (Mean ± SD) of PHIS-PDiTG468", "setting": "[3]", "value": "41.2 ± 2.9 ΔA min^−1"},
      {"measurement": "PDI Activity (Mean ± SD) of PDI", "setting": "[4]", "value": "24.0 ± 2.0 ΔA min^−1"},
      {"measurement": "Activity (mU ± SEM)", "setting": "[2]", "value": "48.3 ± 4.0 mU and 44.6 ± 5.1 mU"},
      {"measurement": "Effect on transglutaminase activity of PHIS-PDiTG468 (in words)", "setting": "[2]", "value": "inhibited the transglutaminase activity"},
      {"measurement": "Percent molted", "setting": "[5]; 25 μM, L3 cultured 6 days", "value": 75, "unit": "%"},
      {"measurement": "Percent molted", "setting": "[5]; 50 μM, L3 cultured 6 days", "value": 63, "unit": "%"},
      {"measurement": "Percent molted", "setting": "[5]; [10]", "value": 64, "unit": "%"},
      {"measurement": "Percent molted", "setting": "[5]; 75 μM, L3 cultured 6 days", "value": 28, "unit": "%"},
      {"measurement": "Percent molted", "setting": "[5]; 85 μM, L3 cultured 6 days", "value": 2.5, "unit": "%"},
      {"measurement": "Inhibition of molting of L3 to L4 (in words)", "setting": "[5]; 100 μM final concentration, listed as MDC", "value": "completely inhibited the molting process; also recorded: completely inhibits"},
      {"measurement": "Percent molted", "setting": "[5]; 100 μM, L3 cultured 6 days", "value": 0, "unit": "%"},
      {"measurement": "Percent molted", "setting": "[5]; [11]", "value": 41, "unit": "%"},
      {"measurement": "Molting of larvae cultured in the presence of MDC (in words)", "setting": "[5]; day 6, electron microscopy study", "value": "failed to molt even on day 6"}
    ]},
    {"molecule": "NCCCCN", "note": "[Putrescine]", "values": [
      {"measurement": "Effect on activity of transglutaminase purified from adult D. immitis worms (in words)", "setting": "[1]", "value": "inhibited competitively"},
      {"measurement": "Transglutaminase activity (% of control)", "setting": "[1]; [9]", "value": "14 % of control"},
      {"measurement": "Activity (mU ± SEM)", "setting": "[2]", "value": "36.5 ± 3.9 mU and 35.3 ± 4.3 mU"},
      {"measurement": "Effect on transglutaminase activity of PHIS-PDiTG468 (in words)", "setting": "[2]", "value": "inhibited the transglutaminase activity"}
    ]},
    {"molecule": "OCCS", "note": "[mercaptoethanol]", "values": [
      {"measurement": "Effect on activity of transglutaminase purified from adult D. immitis worms (in words)", "setting": "[1]", "value": "increased the enzyme activity substantially"}
    ]},
    {"molecule": "Nα-CBZ-Gln-Gly", "values": [
      {"measurement": "Effect on activity of transglutaminase purified from adult D. immitis worms (in words)", "setting": "[1]", "value": "affects the enzyme activity only slightly"},
      {"measurement": "Transglutaminase activity (% of control)", "setting": "[1]", "value": "92 % of control"}
    ]},
    {"molecule": "Tris-HCl", "values": [
      {"measurement": "Effect on activity of transglutaminase purified from adult D. immitis worms (in words)", "setting": "[1]", "value": "reversibly inhibited the enzyme"},
      {"measurement": "Transglutaminase activity (% of control)", "setting": "[1]", "value": "66 % of control and 40 % of control"}
    ]},
    {"molecule": "PDI: bovine protein disulfide isomerase, purified from bovine liver, available from Sigma (protein, UniProt P05307 21-510, looked up) Protein disulfide-isomerase: APDEEDHVLVLHKGNFDEALAAHKYLLVEFYAPWCGHCKALAPEYAKAAGKLKAEGSEIRLAKVDATEESDLAQQYGVRGYPTIKFFKNGDTASPKEYTAGREADDIVNWLKKRTGPAASTLSDGAAAEALVESSEVAVIGFFKDMESDSAKQFFLAAEVIDDIPFGITSNSDVFSKYQLDKDGVVLFKKFDEGRNNFEGEVTKEKLLDFIKHNQLPLVIEFTEQTAPKIFGGEIKTHILLFLPKSVSDYEGKLSNFKKAAESFKGKILFIFIDSDHTDNQRILEFFGLKKEECPAVRLITLEEEMTKYKPESDELTAEKITEFCHRFLEGKIKPHLMSQELPDDWDKQPVKVLVGKNFEEVAFDEKKNVFVEFYAPWCGHCKQLAPIWDKLGETYKDHENIVIAKMDSTANEVEAVKVHSFPTLKFFPASADRTVIDYNGERTLDGFKKFLESGGQDGAGDDDDLEDLEEAEEPDLEEDDDQKAVKDEL", "values": [
      {"measurement": "Temperature of optimum transglutaminase activity", "setting": "[7]", "value": 55, "unit": "°C"},
      {"measurement": "Activity (mU ± SEM)", "setting": "[7]; 37 °C", "value": "30.3 ± 1.0", "unit": "mU"},
      {"measurement": "Activity (mU ± SEM)", "setting": "[7]; 45 °C", "value": "47.2 ± 2.5", "unit": "mU"},
      {"measurement": "Activity (mU ± SEM)", "setting": "[7]; 55 °C", "value": "92.1 ± 4.3", "unit": "mU"},
      {"measurement": "Activity (mU ± SEM)", "setting": "[7]; 65 °C", "value": "67.0 ± 2.9", "unit": "mU"}
    ]}
  ]
}
